Like-named read-outs stand apart in the source and are kept apart here.
Experiments:
NF-κB = NF-κB assay: THP1-NF-κB-LUC cells, LPS-stimulated secreted luciferase; format: cell-based; settings: read-out: IC50 (NF-κB assay)
How it was run: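 THP1-NF-κB-LUC cells (25k/well) were pretreated with compounds for 2 h, then stimulated with LPS (10 ng/mL) for 18 h. Secreted luciferase was measured and normalized to vehicle, and IC50 was fitted from the concentration series.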

TNF release = experiment: TNF assay: TNF release from LPS-stimulated human PBMCs (TNF ELISA); format: cell-based; settings: PBMC, read-out: IC50 (TNF assay)
Experimental: 25k THP1-NF-κB-LUC cells were dispensed into 384 well plate (per well). Cells were treated with compounds with various concentrations for 2 hours before addition of LPS (10 ng/mL) for 18 hours. Secreted luciferase activity were measured using quant-luc reagents (1 bag of luc reagent dilute to 40 mL, use 10 μL per well). Data were normalized to vehicle control and graphed. Compound IC50 towards inhibiting NF-κB were determined through Prism. Similarly, 10k human PBMCs cells were cultured in 384 well plate (per well). Cells were treated with compounds with various concentrations for 2 hours before addition of LPS (10 ng/ml) for 18 hours, and supernatants were collected and assayed for TNF ELISA. Compound IC50 towards inhibiting TNF release were determined through Prism. • Activity: “+”>10 μM, “++”>1 μM and <10 μM, “+++”>0.1 μM and <1 μM, “++++”<0.1 μM.

[1] = THP1-NF-κB-LUC cells, LPS-stimulated
[2] = LPS-stimulated human PBMCs, TNF ELISA
[3] = THP1-NF-κB-LUC cells, compounds 2 hours before LPS (10 ng/mL) for 18 hours, secreted luciferase
[4] = human PBMCs, compounds 2 hours before LPS (10 ng/ml) for 18 hours, supernatant TNF ELISA

| Compound | IC50 (NF-κB; [1]) [µM] | IC50 (TNF release; [2]) [µM] | IC50 (NF-κB; [3]) [µM] | IC50 (TNF release; [4]) [µM] | also measured |
| --- | --- | --- | --- | --- | --- |
| CNC(=O)c1ccc2nc(-c3cccs3)c(-c3ccc(F)cc3)nc2c1 [BC19119] | < 0.1 | < 0.1 |  |  |  |
| C#CCNC(=O)c1ccc2nc(-c3cccs3)c(-c3ccc(F)cc3)nc2c1 [BC19120] | < 0.1 | < 0.1 |  |  |  |
| O=c1c(S(=O)(=O)c2ccc(F)c(F)c2)c[nH]c2cccnc12 [BC19121] |  |  | > 10 | > 10 |  |
| O=c1c(S(=O)(=O)c2ccc(F)c(F)c2)c[nH]c2ccc(Cl)nc12 [BC19122] |  |  | > 10 | > 10 |  |
| O=c1c(S(=O)(=O)c2ccc(F)cc2)c[nH]c2ccncc12 [BC19123] |  |  | 1 to 10 | > 10 |  |
| O=c1c(S(=O)(=O)c2ccc(F)cc2)c[nH]c2cccnc12 [BC19124] |  |  | > 10 | > 10 |  |
| CCS(=O)(=O)c1oc(-c2ccc(C)cc2)nc1S(=O)(=O)c1ccc(F)cc1 [BC19125] | < 0.1 | < 0.1 |  |  |  |
| Cc1ccc(-c2nc(S(=O)(=O)c3ccc(Cl)cc3)c(S(C)(=O)=O)o2)cc1 [BC19126] | 1 to 10 | 0.1 to 1 |  |  |  |
| CCS(=O)(=O)c1oc(-c2ccc(C)cc2)nc1S(=O)(=O)c1ccc(Cl)cc1 [BC19127] | < 0.1 | 1 to 10 |  |  |  |
| Cc1ccc(-c2nc(S(=O)(=O)c3ccc(Br)cc3)c(S(C)(=O)=O)o2)cc1 [BC19128] | 1 to 10 | 0.1 to 1 |  |  |  |
| CCS(=O)(=O)c1oc(-c2ccc(C)cc2)nc1S(=O)(=O)c1ccc(Br)cc1 [BC19129] | < 0.1 | 0.1 to 1 |  |  |  |
| CCCS(=O)(=O)c1oc(-c2ccc(C)cc2)nc1S(=O)(=O)c1ccc(Br)cc1 [BC19130] | 0.1 to 1 | 0.1 to 1 |  |  |  |
| O=C1COc2cc(S(=O)(=O)Nc3ccc(Cl)cc3)c(Cl)cc2N1 [BC19133] |  |  | < 0.1 | > 10 |  |
| CCOc1ccc(NS(=O)(=O)c2cc3c(cc2Br)NC(=O)CO3)cc1 [BC19135] |  |  | > 10 | > 10 |  |
| CC(C)c1ccc(NS(=O)(=O)c2cc3c(cc2Cl)NC(=O)CO3)cc1 [BC19136] |  |  | > 10 | > 10 |  |
| COc1ccc(NS(=O)(=O)c2cc3c(cc2Br)NC(=O)CO3)cc1 [BC19137] |  |  | 0.1 to 1 | > 10 |  |
| CCc1ccc(NS(=O)(=O)c2cc3c(cc2Br)NC(=O)CO3)cc1 [BC19138] |  |  | < 0.1 | > 10 |  |
| Cn1nnnc1-c1ccc2nc(-c3ccc(F)cc3)c(-c3ccc(F)cc3)nc2c1 [BC19139] | < 0.1 | > 10 |  |  |  |
| Cc1cnc(-c2ccc3nc(-c4ccc(F)cc4)c(-c4ccc(F)cc4)nc3c2)o1 [BC19140] | 1 to 10 | > 10 |  |  |  |

| Compound | IC50 (NF-κB; [1]) [µM] | IC50 (TNF release; [2]) [µM] | IC50 (NF-κB; [3]) [µM] | IC50 (TNF release; [4]) [µM] | also measured |
| --- | --- | --- | --- | --- | --- |
| Cc1nnc(-c2ccc3nc(-c4ccc(F)cc4)c(-c4ccc(F)cc4)nc3c2)o1 [BC19141] | 0.1 to 1 | > 10 |  |  |  |
| CN1CCN(C(=O)c2ccc3nc(C(F)(F)F)c(-c4cccc(F)c4)nc3c2)CC1 [BC19142] | > 10 | > 10 |  |  |  |
| Fc1ccc(-c2nc3ccc(-c4nnc[nH]4)cc3nc2-c2ccc(F)cc2)cc1 [BC19143] | 0.1 to 1 | > 10 |  |  |  |
| Fc1ccc(-c2nc3ccc(-c4nnn[nH]4)cc3nc2-c2ccc(F)cc2)cc1 [BC19144] | 1 to 10 | > 10 |  |  |  |
| Fc1ccc(-c2nc3ccc(-c4ncco4)cc3nc2-c2ccc(F)cc2)cc1 [BC19145] | 1 to 10 | > 10 |  |  |  |
| Cc1ccc(-c2nc(S(=O)(=O)c3ccc(C)cc3)c(S(=O)(=O)C(C)C)o2)cc1 [BC19146] | < 0.1 | 0.1 to 1 |  |  |  |
| Cc1ccc(-c2nc(S(=O)(=O)c3ccc(F)cc3)c(S(C)(=O)=O)o2)cc1 [BC19147] | 0.1 to 1 | 0.1 to 1 |  |  |  |
| Cn1cc(-c2ccc3nc(-c4ccc(F)cc4)c(-c4ccc(F)cc4)nc3c2)nn1 [BC19148] | < 0.1 | > 10 |  |  |  |
| CN1CCN(C(=O)c2ccc3nc(C(F)(F)F)c(-c4ccncc4)nc3c2)CC1 [BC19149] | > 10 | > 10 |  |  |  |
| Fc1ccc(-c2nc3ccc(-c4c[nH]nn4)cc3nc2-c2ccc(F)cc2)cc1 [BC19150] | 0.1 to 1 | 1 to 10 |  |  |  |
| Cc1nnc(-c2ccc3nc(C(F)(F)F)c(-c4ccc(F)cc4)nc3c2)o1 [BC19151] | > 10 | > 10 |  |  |  |
| Cn1nnnc1-c1ccc2nc(-c3ccc(F)cc3)c(C(F)(F)F)nc2c1 [BC19152] | > 10 | > 10 |  |  |  |
| Fc1ccc(-c2nc3ccc(-c4nnn[nH]4)cc3nc2C(F)(F)F)cc1 [BC19153] | > 10 | > 10 |  |  |  |
| C#CCNC(=O)c1ccc2nc(-c3ccc(F)cc3)c(-c3ccc(F)cc3)nc2c1 [BC19154] | < 0.1 | > 10 |  |  |  |
| NC(=O)c1ccc2nc(-c3cccs3)c(-c3ccc(F)cc3)nc2c1 [BC19155] | 0.1 to 1 | 1 to 10 |  |  |  |
| O=C(O)c1ccc2nc(-c3ccc(F)cc3)c(-c3cccs3)nc2c1 [BC19156] |  |  |  |  | IC50 (NF-κB): 1 to 10 µM; IC50 (TNF release; Homo sapiens): > 10 µM |
| N#Cc1ccc2nc(-c3cccs3)c(-c3ccc(F)cc3)nc2c1 [BC19157] | > 10 | > 10 |  |  |  |
| N#Cc1ccc2nc(-c3ccc(F)cc3)c(C(F)(F)F)nc2c1 [BC19158] | > 10 | > 10 |  |  |  |
| Fc1ccc(-c2nc3ccc(-c4nnc[nH]4)cc3nc2C(F)(F)F)cc1 [BC19159] | > 10 | > 10 |  |  |  |

| Compound | IC50 (NF-κB; [1]) [µM] | IC50 (TNF release; [2]) [µM] | IC50 (NF-κB; [3]) [µM] | IC50 (TNF release; [4]) [µM] | also measured |
| --- | --- | --- | --- | --- | --- |
| O=c1c(S(=O)(=O)c2ccc(F)cc2)c[nH]c2ccc(Cl)cc12 [BC19160] |  |  | > 10 | > 10 |  |
| O=C1COc2cc(S(=O)(=O)Nc3ccccc3)c(Cl)cc2N1 [BC19161] |  |  | 1 to 10 | > 10 |  |
| Cc1ccc(Cl)cc1NS(=O)(=O)c1cc2c(cc1Cl)NC(=O)CO2 [BC19162] |  |  | > 10 | > 10 |  |
| COc1ccc(NS(=O)(=O)c2cc3c(cc2Br)NC(=O)CO3)cc1Cl [BC19163] |  |  | > 10 | > 10 |  |
| O=C1COc2cc(S(=O)(=O)Nc3ccc(OC(F)(F)F)cc3)c(Cl)cc2N1 [BC19164] |  |  | < 0.1 | > 10 |  |
| Cc1ccc(NS(=O)(=O)c2cc3c(cc2Cl)NC(=O)CO3)cc1Cl [BC19165] |  |  | 0.1 to 1 | > 10 |  |
| O=C1COc2cc(S(=O)(=O)Nc3ccc(F)cc3F)c(Br)cc2N1 [BC19166] |  |  | < 0.1 | > 10 |  |
| CCc1cccc(NS(=O)(=O)c2cc3c(cc2Br)NC(=O)CO3)c1 [BC19167] |  |  | 0.1 to 1 | > 10 |  |
| O=C1COc2c(cc(Cl)cc2S(=O)(=O)Nc2ccccc2)N1 [BC19168] |  |  | < 0.1 | > 10 |  |
| O=C1COc2c(cc(Cl)cc2S(=O)(=O)Nc2ccc(Cl)cc2)N1 [BC19169] |  |  | < 0.1 | > 10 |  |
| Cc1ccc(Cl)cc1NS(=O)(=O)c1cc(Cl)cc2c1OCC(=O)N2 [BC19170] |  |  | 1 to 10 | > 10 |  |
| COc1ccc(NS(=O)(=O)c2cc(Br)cc3c2OCC(=O)N3)cc1Cl [BC19171] |  |  | < 0.1 | > 10 |  |
| O=C1COc2c(cc(Cl)cc2S(=O)(=O)Nc2ccc(OC(F)(F)F)cc2)N1 [BC19172] |  |  | < 0.1 | > 10 |  |
| CCOc1ccc(NS(=O)(=O)c2cc(Br)cc3c2OCC(=O)N3)cc1 [BC19173] |  |  | < 0.1 | > 10 |  |
| CC(C)c1ccc(NS(=O)(=O)c2cc(Cl)cc3c2OCC(=O)N3)cc1 [BC19174] |  |  | < 0.1 | > 10 |  |
| COc1ccc(NS(=O)(=O)c2cc(Br)cc3c2OCC(=O)N3)cc1 [BC19175] |  |  | < 0.1 | > 10 |  |
| Cc1ccc(NS(=O)(=O)c2cc(Cl)cc3c2OCC(=O)N3)cc1Cl [BC19176] |  |  | < 0.1 | > 10 |  |
| O=C1COc2c(cc(Br)cc2S(=O)(=O)Nc2ccc(F)c(F)c2)N1 [BC19177] |  |  | < 0.1 | > 10 |  |

— patent publication US12606528B2, “Methods and materials for inhibiting NF-kB activity” (University of Pittsburgh - Of the Commonwealth System of …, priority 2019, dated 2026)
